Test results taken from patent publication EP4308247B1, “USE OF MONO[…] TREATING SIGNS OF SKIN AGING” (Unilever IP Holdings B.V., priority 2021, dated 2022).

System: primary adult human dermal fibroblasts (HDFs)
Assay: High-throughput compound screen for senolytic activity (cell viability by Hoechst 33342 / SYTOX Green imaging) in early proliferating (EP) and deeply senescent (DS) fibroblasts
Type: cell-based
Parameters: key to hit classification based on EP and DS cell viability: senolytic: EP cell viability above the 89% EP threshold and DS cell viability below the 87% DS threshold for at least one concentration of the three serial concentrations; prolifolytic: decreased EP cell viability below the 89% EP threshold but did not decrease DS cell viability below 87%; cytotoxic: decreased both EP and DS cell viability below their respective thresholds; non-toxic: maintained both EP and DS viability above their respective thresholds
Excerpt: A high-throughput compound screen of 1240 test compounds including inter alia monostearin (IUPAC: 1,3-dihydroxypropan-2-yl octadecanoate 2,3-dihydroxypropyl octadecanoate) was optimised in primary adult human dermal fibroblasts (HDFs). For this, a model of replicative senescence in HDFs was established. In brief, early proliferating (EP) fibroblasts at passage 11 were serially passaged until they reached replicative senescence at passage 29.
Actinomycin D, a drug widely reported to induce apoptosis in multiple cell types, was optimised for use as a positive 'senolytic control' for the high-throughput compound screen in EP (0.02µM) and DS (0.2µM) HDFs.
In order to perform the high-throughput screen of the test compounds a thorough validation process of the assay was undertaken prior to experimental screening. For both EP and DS HDFs, the following steps were optimised: optimisation of cell seeding densities in 384-well plate format; validation and optimisation of Actinomycin D positive and DMSO-vehicle negative controls; optimisation of high-throughput image acquisition and high content analysis of Hoechst 33342 (ThermoFisher, UK) in combination with SYTOX Green (ThermoFisher, UK) using the INCell 2200 microscope (GE, UK) for cell death phenotypic read-outs; optimisation of liquid handling system protocols; plate uniformity assessments; and a "dry run" of all components in the assay. […]

For `CCCCCCCCCCCCCCCCCC(=O)OCC(O)CO` (centres unmarked) [monostearin, 1,3-dihydroxypropan-2-yl octadecanoate 2,3-dihydroxypropyl octadecanoate], the “cytotoxicity for senescent cells, compared to growing cells” value (DS versus EP HDFs, conclusion drawn from the screen) was “preferential cytotoxicity for senescent cells” and the “hit classification based on EP and DS cell viability” value (EP and DS HDFs, three serial concentrations, 48 hours incubation, read-out five days post-compound addition, class met for at least one concentration) was “senolytic”.
